Results on 27 compounds are retold here after ChEMBL document CHEMBL1146061, “Novel, potent P2-P3 pyrrolidine derivatives of ketoamide-based cathepsin K inhibitors” (Bioorg Med Chem Lett, 2006).

For one data set, the target named is T1, Cathepsin K (Homo sapiens, UniProt P43235).
T1 sequence (P43235 whole entry): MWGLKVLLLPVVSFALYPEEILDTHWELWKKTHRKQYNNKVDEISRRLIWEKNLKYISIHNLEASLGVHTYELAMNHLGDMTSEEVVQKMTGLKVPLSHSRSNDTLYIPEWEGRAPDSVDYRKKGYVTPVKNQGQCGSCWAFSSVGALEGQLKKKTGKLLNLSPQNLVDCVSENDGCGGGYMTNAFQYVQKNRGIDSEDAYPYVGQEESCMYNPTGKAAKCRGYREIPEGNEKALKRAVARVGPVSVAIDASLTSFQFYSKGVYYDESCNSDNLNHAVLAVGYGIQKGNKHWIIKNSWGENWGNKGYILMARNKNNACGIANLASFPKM
Briefly: Inhibition of recombinant human cathepsin K by fluorescence assay.

Data set [1] can be described thus: Volume of distribution in Han Wistar rat. The settings on record: in vivo, read-out: Vss. It counts as ADME, organism-based.
A short description of data set [2]: Half life in Han Wistar rat iv. It counts as ADME, organism-based. The settings on record: in vivo.
The nature of data set [3]: Solubility in fasted state-simulated intestinal fluid at pH 6.8. The data set is classed as physicochemical.
Data set [4] can be described thus: Oral bioavailability in Han Wistar rat. It counts as ADME, organism-based. The note with it: in vivo.
Data set [5] is described as follows: Clearance in Han Wistar rat. The data set is classed as ADME, organism-based. The settings on record: in vivo.
Data set [6] is described as follows: Permeability in MDCK cell line. It counts as ADME, cell-based, Canis lupus familiaris. The settings on record: dog.

Each structure is given as a SMILES string. In brackets after ≈: the same amount, converted by molar mass.

As to `CCCC[C@H](NC(=O)O[C@@H]1C(=O)N(C(=O)c2cc3ccccc3s2)CC1(C)C)C(=O)C(=O)N[C@H](C)c1ccccc1`, at Cathepsin K, the concentration for half-maximal inhibition (IC50) turned out to be 2.8 nM.
Consider `CCCC[C@H](NC(=O)O[C@@H]1C(=O)N(C(=O)c2cccnc2)CC1(C)C)C(=O)C(=O)N[C@H](C)c1ccccc1`, for which the Vd in data set [1] was 0.55 L/kg. The half-life in data set [2] stood at 1.57 h. Besides, the solubility in data set [3] was 85 µg/mL (≈ 163 µM). The bioavailability in data set [4] stood at 45%. For the same compound, the clearance in data set [5] is 34 mL/min/kg. Besides, the apparent permeability coefficient (Papp) in data set [6] turned out to be 21 ×10⁻⁶ cm/s. The IC50 at Cathepsin K worked out at 14 nM.
In the case of `CCCC[C@H](NC(=O)O[C@@H]1C(=O)N(S(=O)(=O)Cc2ccccc2)CC1(C)C)C(=O)C(=O)N[C@H](C)c1ccccc1`, on Cathepsin K, the IC50 was 17 nM.
On the same count and under the same terms, with `CCCC[C@H](NC(=O)O[C@@H]1C(=O)N(Cc2ccccc2)CC1(C)C)C(=O)C(=O)N[C@H](C)c1ccccc1` the figure was 21 nM.
For `CCCC[C@H](NC(=O)O[C@@H]1C(=O)N(C(=O)Cc2ccccc2)CC1(C)C)C(=O)C(=O)N[C@H](C)c1ccccc1`, the Vd in data set [1] was 1.5 L/kg. The same compound returned a half-life in data set [2] of 1.05 h. In data set [3], this compound had a solubility of 68 µg/mL (≈ 127 µM). In addition, the bioavailability in data set [4] was found to be 29%. For the same compound, in data set [5], the clearance is 26 mL/min/kg. The Papp in data set [6] amounted to 41 ×10⁻⁶ cm/s. In addition, the IC50 at Cathepsin K is 3 nM.
For `CCCC[C@H](NC(=O)O[C@@H]1C(=O)N(C(=O)Oc2ccc3ccccc3c2)CC1(C)C)C(=O)C(=O)N[C@H](C)c1ccccc1`, on Cathepsin K, the IC50 was determined as 58 nM.
For `CCCC[C@H](NC(=O)O[C@@H]1C(=O)N(C(=O)Oc2ccc(-c3ccccc3)cc2)CC1(C)C)C(=O)C(=O)N[C@H](C)c1ccccc1`, the concentration for half-maximal inhibition (IC50) at Cathepsin K was 5 nM.
Take `CCCC[C@H](NC(=O)O[C@@H]1C(=O)N(C(=O)Nc2ccc(C(F)(F)F)cc2)CC1(C)C)C(=O)C(=O)Nc1cc[nH]n1`: the Vd in data set [1] turned out to be 2.6 L/kg. The half-life in data set [2] was 1.25 h. In addition, the concentration in solution in data set [3] (solubility) came to 140 µg/mL (≈ 247 µM). This compound also showed a bioavailability in data set [4] of 26%. Besides, in data set [5], the clearance was determined as 77 mL/min/kg. This compound came in with an apparent permeability (Papp) in data set [6] of 1.8 ×10⁻⁶ cm/s. Besides, the 50% inhibitory concentration (IC50) on Cathepsin K was 0.42 nM.
As to `CCCC[C@H](NC(=O)O[C@@H]1C(=O)N(C(=O)c2ccc3ccccc3c2)CC1(C)C)C(=O)C(=O)N[C@H](C)c1ccccc1`, the IC50 on Cathepsin K turned out to be 1.6 nM.
For `CCCC[C@H](NC(=O)O[C@@H]1C(=O)N(C(=O)c2ccccc2)CC1(C)C)C(=O)C(=O)N[C@H](C)c1ccccc1`, the half-inhibitory concentration (IC50) at Cathepsin K was determined as 65 nM.
Still for that read-out and setting: the value for `CCCC[C@H](NC(=O)O[C@@H]1C(=O)N(C(=O)N2CCOCC2)CC1(C)C)C(=O)C(=O)N[C@H](C)c1ccccc1` was 16 nM; that for `CCCC[C@H](NC(=O)O[C@@H]1C(=O)N(C(=O)Nc2ccccc2)CC1(C)C)C(=O)C(=O)N[C@H](C)c1ccccc1` was 4.3 nM.
Turning to `CCCC[C@H](NC(=O)O[C@@H]1C(=O)N(C(=O)c2nc3ccccc3s2)CC1(C)C)C(=O)C(=O)Nc1ccn[nH]1`, in data set [1], the Vd was found to be 2.2 L/kg. Besides, the half-life in data set [2] came to 3 h. In addition, in data set [3], the solubility was 160 µg/mL (≈ 296 µM). The compound also returned a bioavailability in data set [4] of 14%. In data set [5], the clearance stood at 65 mL/min/kg. For the same compound, the apparent permeability coefficient (Papp) in data set [6] turned out to be 25 ×10⁻⁶ cm/s. In addition, at Cathepsin K, the half-maximal inhibitory concentration (IC50) is 0.81 nM.
For `CCCC[C@H](NC(=O)O[C@@H]1C(=O)N(C(=O)Oc2ccccc2)CC1(C)C)C(=O)C(=O)N[C@H](C)c1ccccc1`, the half-inhibitory concentration (IC50) on Cathepsin K was found to be 29 nM.
Take `CCCC[C@H](NC(=O)O[C@@H]1C(=O)N(C(=O)Nc2ccc(C(F)(F)F)cc2)CC1(C)C)C(=O)C(=O)N[C@H](C)c1ccccc1`: the half-inhibitory concentration (IC50) on Cathepsin K was found to be 2.1 nM.
Same read-out and setting: with `CCCC[C@H](NC(=O)O[C@@H]1C(=O)N(C(=O)NCCc2ccccc2)CC1(C)C)C(=O)C(=O)N[C@H](C)c1ccccc1` the figure was 6.6 nM; with `CCCC[C@H](NC(=O)O[C@@H]1C(=O)N(C(=O)c2ccc(-c3ccccc3)cc2)CC1(C)C)C(=O)C(=O)N[C@H](C)c1ccccc1`, 6.9 nM.
In the case of `CCCC[C@H](NC(=O)O[C@@H]1C(=O)N(C(=O)Nc2c(C)noc2C)CC1(C)C)C(=O)C(=O)N[C@H](C)c1ccccc1`, in data set [1], the Vd came out at 1.4 L/kg. Moreover, the half-life in data set [2] worked out at 0.583 h. The solubility in data set [3] was 320 µg/mL (≈ 576 µM). In data set [4], the bioavailability is 8.8%. In data set [5], this compound came in with a clearance of 83 mL/min/kg. The Papp in data set [6] was found to be 1.2 ×10⁻⁶ cm/s. For the same compound, at Cathepsin K, the half-maximal inhibitory concentration (IC50) was 15 nM.
On to `CCCC[C@H](NC(=O)O[C@@H]1C(=O)N(C(=O)CCCc2ccccc2)CC1(C)C)C(=O)C(=O)N[C@H](C)c1ccccc1`, for which the half-inhibitory concentration (IC50) on Cathepsin K was 27 nM.
As to `CCCC[C@H](NC(=O)O[C@@H]1C(=O)N(C(=O)NCc2ccccc2)CC1(C)C)C(=O)C(=O)N[C@H](C)c1ccccc1`, in data set [1], the Vd worked out at 1.4 L/kg. Besides, in data set [2], the half-life was found to be 1.02 h. In addition, the concentration in solution in data set [3] (solubility) was 53 µg/mL (≈ 96.2 µM). The compound further yielded a bioavailability in data set [4] of 21%. In data set [5], the clearance is 32 mL/min/kg. This compound also returned an apparent permeability (Papp) in data set [6] of 21 ×10⁻⁶ cm/s. In addition, the IC50 at Cathepsin K stood at 3.8 nM.
On to `CCCC[C@H](NC(=O)O[C@@H]1C(=O)N(C(=O)c2nnc(C(F)(F)F)s2)CC1(C)C)C(=O)C(=O)Nc1cc[nH]n1`, for which the Vd in data set [1] was found to be 3.3 L/kg. In addition, in data set [2], the half-life is 1.35 h. For the same compound, the bioavailability in data set [4] came out at 13%. In data set [5], this compound returned a clearance of 79 mL/min/kg. Also, in data set [6], the apparent permeability (Papp) was determined as 12 ×10⁻⁶ cm/s. Also, the IC50 on Cathepsin K came to 1 nM.
Take `CCCC[C@H](NC(=O)O[C@@H]1C(=O)N(C(=O)OCc2ccccc2)CC1(C)C)C(=O)C(=O)N[C@H](C)c1ccccc1`: at Cathepsin K, the IC50 turned out to be 24 nM.
Take `CCCC[C@H](NC(=O)O[C@@H]1C(=O)N(C(=O)c2ccno2)CC1(C)C)C(=O)C(=O)N[C@H](C)c1ccccc1`: in data set [1], the Vd was found to be 0.5 L/kg. In data set [2], this compound yielded a half-life of 0.6 h. In data set [3], this compound yielded a solubility of 68 µg/mL (≈ 133 µM). Also, the bioavailability in data set [4] came out at 8.6%. The compound further gave a clearance in data set [5] of 18 mL/min/kg. Also, the apparent permeability coefficient (Papp) in data set [6] turned out to be 48 ×10⁻⁶ cm/s. For the same compound, the IC50 at Cathepsin K was determined as 8.9 nM.
In the case of `CCCC[C@H](NC(=O)O[C@@H]1C(=O)N(C(=O)OCCc2ccccc2)CC1(C)C)C(=O)C(=O)N[C@H](C)c1ccccc1`, the half-inhibitory concentration (IC50) at Cathepsin K came out at 32 nM.
For `CCCC[C@H](NC(=O)O[C@@H]1C(=O)N(C(=O)c2ccc3[nH]ccc3c2)CC1(C)C)C(=O)C(=O)N[C@H](C)c1ccccc1`, on Cathepsin K, the IC50 was 1.7 nM.
The same measure, in the same setting: the value for `CCCC[C@H](NC(=O)O[C@@H]1C(=O)N(C(=O)OCc2ccc(-c3ccccc3)cc2)CC1(C)C)C(=O)C(=O)N[C@H](C)c1ccccc1` was 2.1 nM.
As to `CCCC[C@H](NC(=O)O[C@@H]1C(=O)N(S(=O)(=O)c2ccccc2)CC1(C)C)C(=O)C(=O)N[C@H](C)c1ccccc1`, in data set [1], the Vd is 2.1 L/kg. In data set [2], this compound came in with a half-life of 2.5 h. In data set [4], the bioavailability was determined as 25%. Further, the clearance in data set [5] stood at 27 mL/min/kg. At Cathepsin K, the IC50 is 8.3 nM.
